Patent publication US11028090B2 (Dong Wha Pharm. Co., Ltd., priority 2017, dated 2021)
Structures can show the parent of a compound that is named as a salt. Where two headings read alike, the source gives them in different places.

Target: BRD4 (BD1+BD2) bromodomain (Homo sapiens (Human), UniProt O60885)
Experiment: BRD4 binding inhibition (AlphaScreen, GST-BRD4 vs tetraacetylated histone H4 peptide)
Procedure: A mixture comprising 100 nM GST-BRD4 (BD1+BD2) and 100 nM biotinylated acetyl-histone H4 (Lys5,8,12,16) peptide was prepared in assay buffer (50 mM HEPES pH 7.4; 25 mM NaCl; 0.05% Tween 20; 0.1% bovine serum albumin (BSA); 10 mM dithiothreitol (DTT)). After adding 6 μl of the mixture to the diluent, 6 μl of the pre-mixed AlphaLISA Glutathione Acceptor Beads and AlphaScreen Streptavidin Donor Beads (PerkinElmer, 10 μg/ml in assay buffer, respectively) was added thereto. The samples were incubated in the dark at room temperature for 30 minutes (shaking at 300 rpm). Then, the signals were measured with PerkinElmer Envision HTS Multilabel Reader using an alpha screen protocol of PerkinElmer. Each plate contained the negative control in which biotinylated acetyl-histone H4 peptide and GST-BRD4 (BD1+BD2) were replaced by assay buffer. In the case of using the software GraphPad Prism for calculation, the negative control point was input as a low standard value. The positive control (probe molecule l-BET762 containing protein/peptide mixture) proceeded to pipetting.

[1] = GST-BRD4 (BD1+BD2) vs biotinylated acetyl-histone H4 peptide, AlphaScreen, read-out: BRD4 IC50
[2] = GST-BRD4 (BD1+BD2) / biotinylated acetyl-histone H4 (Lys5,8,12,16) peptide, read-out: IC50, BRD4 binding inhibition

Compound	IC50 [1]	IC50 [2]
COc1ccc2c(c1)nc(NCCCCNC(=O)[C@H](C(C)C)N1CCOCC1)c1nnc(C)n12 [Example 314, N-[4-(7-methoxy-1-methyl-[1,2,4]triazolo[4,3-a]quinoxaline-4-ylamino)-butyl]-3-methyl-2-(S)-morpholine-4-yl-butyramide]	0.056 µM	
COc1cccc2c1nc(NCCCCN)c1nnc(C)n12 [Example 118, N^1-(6-methoxy-1-methyl-[1,2,4]triazolo[4,3-a]quinoxaline-4-yl)-butane-1,4-diamine dihydrochloride]	0.054 µM	
COCCOc1ccc2c(c1)nc(NCCCCNC(=O)C(C)C)c1nnc(C)n12 [Example 376, {4-[7-(2-methoxy-ethoxy)-1-methyl-[1,2,4]triazolo[4,3-a]quinoxaline-4-ylamino]-butyl}-isobutyramide]		≤ 0.05 µM
Cc1nnc2c(NCCCCNC(=O)c3ccc(Cl)nc3Cl)nc3ccccc3n12 [Example 19, 2,6-dichloro-N-[4-(1-methyl-[1,2,4]triazolo[4,3-a]quinoxaline-4-ylamino)-butyl]-nicotinamide]	0.036 µM	≤ 0.05 µM
COc1cc(C(F)(F)F)cc2c1nc(NCCCCNC(=O)OC(C)C)c1nnc(C)n12 [Example 144, [4-(6-methoxy-1-methyl-8-trifluoromethyl-[1,2,4]triazolo[4,3-a]quinoxaline-4-ylamino)-butyl]-carbamic acid isopropylester]	0.038 µM	≤ 0.05 µM
COc1ccc2nc(NCCCCNC(=O)[C@@H](O)C(C)C)c3nnc(C)n3c2c1 [Example 126, 2-(S)-hydroxy-N-[4-(8-methoxy-1-methyl-[1,2,4]triazolo[4,3-a]quinoxaline-4-ylamino)-butyl]-3-methyl-butyramide]	0.004 µM	≤ 0.01 µM
COCCOc1ccc2c(c1)nc(NCCCCNC(=O)C(C)(C)C(F)(F)F)c1nnc(C)n12 [Example 392, 3,3,3-trifluoro-N-{4-[7-(2-methoxy-ethoxy)-1-methyl-[1,2,4]triazolo[4,3-a]quinoxaline-4-ylamino]-butyl}-2,2-dimethyl-propionamide]	0.009 µM	≤ 0.01 µM
COCCOc1ccc2c(c1)nc(NCCCCNC(=O)OC(C)(C)C)c1nnc(C)n12 [Example 363, {4-[7-(2-methoxy-ethoxy)-1-methyl-[1,2,4]triazolo[4,3-a]quinoxaline-4-ylamino]-butyl}-carbamic acid-tert-butylester]	0.016 µM	≤ 0.05 µM
Cc1nnc2c(NCCCCNC(=O)c3ccc(Cl)cc3)nc3ccccc3n12 [Example 14, 4-chloro-N-[4-(1-methyl-[1,2,4]triazolo[4,3-a]quinoxaline-4-ylamino)-butyl]-benzamide]	0.041 µM	≤ 0.05 µM
Cc1nnc2c(NCCCCNC(=O)c3ccccc3Cl)nc3cc(Cl)c(Cl)cc3n12 [Example 32]	0.089 µM	
COCCOc1ccc2c(c1)nc(NCCCCNC(=O)COC(C)=O)c1nnc(C)n12 [Example 386, acetic acid-{4-[7-(2-methoxy-ethoxy)-1-methyl-[1,2,4]triazolo[4,3-a]quinoxaline-4-ylamino]-butylcarbamoyl}-methylester]	0.078 µM	
Cc1nnc2c(NCCCCNC(=O)C(C)(C)O)nc3cc(-c4nc5ccccc5n4C)ccc3n12 [Example 232, 2-hydroxy-N-{4-(7-(1-methyl-1H-benzoimidazole-2-yl)-1-methyl-[1,2,4]triazolo[4,3-a]quinoxaline-4-ylamino)-butyl}-2-methyl-propionamide]	0.033 µM	≤ 0.05 µM
COCCOc1ccc2c(c1)nc(NCCCCN)c1nnc(C)n12 [Example 364, N^1-[7-(2-methoxy-ethoxy)-1-methyl-[1,2,4]triazolo[4,3-a]quinoxaline-4-yl]-butane-1,4-diamine ditrifluoroacetic acid]	0.098 µM	
COc1c(C)ccc2c1nc(NCCCCNC(=O)c1ccccc1F)c1nnc(C)n12 [Example 139, 2-fluoro-N-[4-(6-methoxy-1,7-dimethyl-[1,2,4]triazolo[4,3-a]quinoxaline-4-ylamino)-butyl]-benzamide]	0.04 µM	≤ 0.05 µM
Cc1nnc2c(NCCCCNC(=O)c3cccc(Cl)c3Cl)nc3ccccc3n12 [Example 17]	0.051 µM	
COc1ccc2c(c1)nc(NCCCCNC(=O)COC(C)=O)c1nnc(C)n12 [Example 303, acetic acid-[4-(7-methoxy-1-methyl-[1,2,4]triazolo[4,3-a]quinoxaline-4-ylamino)-butylcarbamoyl]-methylester]	0.063 µM	
N-(4-{7-[4-(N-hydroxycarbamimidoyl)-benzoyl]-1-methyl-[1,2,4]triazolo[4,3-a]quinoxaline-4-ylamino}-butyl)-3-methyl-butyramide [Example 347]	0.018 µM	≤ 0.05 µM
COc1ccc2c(c1)nc(NCCCCNC(=O)[C@@H](OC)C(C)C)c1nnc(C)n12 [Example 301, 2-(S)-methoxy-N-[4-(7-methoxy-1-methyl-[1,2,4]triazolo[4,3-a]quinoxaline-4-ylamino)-butyl]-3-methyl-butyramide]	0.016 µM	≤ 0.05 µM
COc1cccc2c1nc(NCCCCNC(=O)C(C)(C)C)c1nnc(C)n12 [Example 119, N-[4-(6-methoxy-1-methyl-[1,2,4]triazolo[4,3-a]quinoxaline-4-ylamino)-butyl]-2,2-dimethyl-propionamide]	0.079 µM	
CCNC(=O)NCCCCNc1nc2cc(OC)c(OC)cc2n2c(C)nnc12 [Example 89, 1-[4-(7,8-dimethoxy-1-methyl-[1,2,4]triazolo[4,3-a]quinoxaline-4-ylamino)-butyl]-3-ethyl-urea]	0.047 µM	≤ 0.05 µM
COCC(=O)NCCCCNc1nc2cc(OC)c(OC)cc2n2c(C)nnc12 [Example 80, N-[4-(7,8-dimethoxy-1-methyl-[1,2,4]triazolo[4,3-a]quinoxaline-4-ylamino)-butyl]-2-methoxy-acetamide]	0.028 µM	≤ 0.05 µM

Results, then the compound that gave them:

IC50 [1]	IC50 [2]	Compound
0.012 µM	≤ 0.05 µM	COc1ccc2c(nc(NCCCCN)c3nnc(C)n32)c1Cl [Example 460, dihydrochloride]
0.029 µM	≤ 0.05 µM	COc1cc2nc(NCCCCC(=O)NC(C)C)c3nnc(C)n3c2cc1OC [Example 647, 5-(7,8-dimethoxy-1-methyl-[1,2,4]triazolo[4,3-a]quinoxaline-4-ylamino)-pentanoic acid-isopropylamide]
0.093 µM		Cc1nnc2c(NCCCCNC(=O)c3ccccc3)nc3ccc(C(=O)NCCN(C)C)cc3n12 [Example 537, 4-(4-benzoylamino)-1-methyl-[1,2,4]triazolo[4,3-a]quinoxaline-8-carboxylic acid-(2-dimethylamino-ethyl)-amide]
0.03 µM	≤ 0.05 µM	COc1ccc2c(nc(NCCCCNC(=O)OC(C)(C)C)c3nnc(C)n32)c1Cl [Example 459, [4-(6-chloro-7-methoxy-1-methyl-[1,2,4]triazolo[4,3-a]quinoxaline-4-ylamino)-butyl]-carbamic acid-tert-butylester]
0.016 µM	≤ 0.05 µM	COc1ccc2c(c1)nc(NCCCCNC(=O)OCC(C)C)c1nnc(C(C)C)n12 [Example 629, [4-(1-isopropyl-7-methoxy-[1,2,4]triazolo[4,3-a]quinoxaline-4-ylamino)-butyl]-carbamic acid isobutylester]
0.02 µM	≤ 0.05 µM	COc1cc2nc(NCCCCNC(=O)NC3CCCCC3)c3nnc(C)n3c2cc1C(F)(F)F [Example 482, 1-cyclohexyl-3-[4-(7-methoxy-1-methyl-8-trifluoromethyl-[1,2,4]triazolo[4,3-a]quinoxaline-4-ylamino)-butyl]-urea]
0.075 µM		Cc1nnc2c(NCCCCNC(=O)OC(C)(C)C)nc3ccc(C(=O)NC(C)C)cc3n12 [Example 532, [4-(8-isopropylcarbamoyl-1-methyl-[1,2,4]triazolo[4,3-a]quinoxaline-4-ylamino)-butyl]-carbamic acid-tert-butylester]
0.026 µM	≤ 0.05 µM	COc1ccc2c(c1)nc(NCCCCC(=O)NCc1ccccc1)c1nnc(C)n12 [Example 658]
0.092 µM		COc1cc2nc(NCCCCNC(=O)CC(C)C)c3nnc(C(F)(F)F)n3c2cc1OC [Example 593, N-[4-(7,8-dimethoxy-1-trifluoromethyl-[1,2,4]triazolo[4,3-a]quinoxaline-4-ylamino)-butyl]-3-methyl-butyramide]
0.059 µM		COCCOc1cc2c(cc1OC)nc(NCCCCNC(=O)CC(C)C)c1nnc(C)n12 [Example 485, N-{4-[7-methoxy-8-(2-methoxy-ethoxy)-1-methyl-[1,2,4]triazolo[4,3-a]quinoxaline-4-ylamino]-butyl}-3-methyl-butyramide]
0.034 µM	≤ 0.05 µM	COc1cc2nc(NCCCCNC(=O)CC(C)C)c3nnc(C(C)C)n3c2cc1OC [Example 603, N-[4-(1-isopropyl-7,8-dimethoxy-[1,2,4]triazolo[4,3-a]quinoxaline-4-ylamino)-butyl]-3-methyl-butyramide]
	≤ 0.05 µM	CC(=O)Nc1ccc2nc(NCCCCNC(=O)OC(C)(C)C)c3nnc(C)n3c2c1 [Example 546, [4-(8-acetamino-1-methyl-[1,2,4]triazolo[4,3-a]quinoxaline-4-ylamino)-butyl]-carbamic acid-tert-butylester]
